How the values were obtained:
[1] = test system: patients with atrial fibrillation at risk of stroke; test: RELY Clinical Trial, dabigatran 110 mg or 150 mg twice daily versus warfarin; format: in vivo
Description: The primary study outcome was stroke or systemic embolism. The primary safety outcome was major hemorrhage. Secondary outcomes were stroke, systemic embolism and death. […] All other bleeding was considered minor.
All analyses were based on intention-to-treat.

[2] = test system: AF patients; conditions: ACTIVE W, warfarin arm; cited from earlier work

Structure (SMILES): CC(=O)CC(c1ccccc1)c1c(O)c2ccccc2oc1=O (racemic) [warfarin, 3-(α-acetonylbenzyl)4-hydroxycoumarin]
- ALT or AST >3xULN ([1]; adjusted to INR 2.0 to 3.0): (2.1) %
- ALT or AST >3xULN with concurrent bilirubin >2xULN ([1]; adjusted to INR 2.0 to 3.0): (0.4) %
- ALT or AST >3xULN with concurrent bilirubin >2xULN, number of patients ([1]; adjusted to INR 2.0 to 3.0): 22
- ALT or AST >3xULN, number of patients ([1]; adjusted to INR 2.0 to 3.0): 126
- Adverse Event Arthralgia ([1]; adjusted to INR 2.0 to 3.0): (5.5) %
- Adverse Event Arthralgia, number of patients ([1]; adjusted to INR 2.0 to 3.0): 328
- Adverse Event Atrial fibrillation ([1]; adjusted to INR 2.0 to 3.0): (5.4) %
- Adverse Event Atrial fibrillation, number of patients ([1]; adjusted to INR 2.0 to 3.0): 326
- Adverse Event Back pain ([1]; adjusted to INR 2.0 to 3.0): (5.5) %
- Adverse Event Back pain, number of patients ([1]; adjusted to INR 2.0 to 3.0): 331
- Adverse Event Chest pain ([1]; adjusted to INR 2.0 to 3.0): (5.7) %
- Adverse Event Chest pain, number of patients ([1]; adjusted to INR 2.0 to 3.0): 342
- Adverse Event Cough ([1]; adjusted to INR 2.0 to 3.0): (5.8) %
- Adverse Event Cough, number of patients ([1]; adjusted to INR 2.0 to 3.0): 345
- Adverse Event Diarrhea ([1]; adjusted to INR 2.0 to 3.0): (5.5) %
- Adverse Event Diarrhea, number of patients ([1]; adjusted to INR 2.0 to 3.0): 327
- Adverse Event Dizziness ([1]; adjusted to INR 2.0 to 3.0): (9.3) %
- Adverse Event Dizziness, number of patients ([1]; adjusted to INR 2.0 to 3.0): 555
- Adverse Event Dyspepsia ([1]; adjusted to INR 2.0 to 3.0): (1.4) %
- Adverse Event Dyspepsia, number of patients ([1]; adjusted to INR 2.0 to 3.0): 83
- Adverse Event Dyspnoea ([1]; adjusted to INR 2.0 to 3.0): (9.2) %
- Adverse Event Dyspnoea, number of patients ([1]; adjusted to INR 2.0 to 3.0): 550
- Adverse Event Fatigue ([1]; adjusted to INR 2.0 to 3.0): (5.9) %
- Adverse Event Fatigue, number of patients ([1]; adjusted to INR 2.0 to 3.0): 353
- Adverse Event Nasopharyngitis ([1]; adjusted to INR 2.0 to 3.0): (5.5) %
- Adverse Event Nasopharyngitis, number of patients ([1]; adjusted to INR 2.0 to 3.0): 327
- Adverse Event Peripheral edema ([1]; adjusted to INR 2.0 to 3.0): (7.6) %
- Adverse Event Peripheral edema, number of patients ([1]; adjusted to INR 2.0 to 3.0): 453
- Adverse Event Upper respiratory tract infection ([1]; adjusted to INR 2.0 to 3.0): (5.0) %
- Adverse Event Upper respiratory tract infection, number of patients ([1]; adjusted to INR 2.0 to 3.0): 297
- Adverse Event Urinary tract infection ([1]; adjusted to INR 2.0 to 3.0): (5.3) %
- Adverse Event Urinary tract infection, number of patients ([1]; adjusted to INR 2.0 to 3.0): 315
- Life threatening bleeding, Rate ([1]; adjusted to INR 2.0 to 3.0): 1.80 /100 Person Years
- Mortality rate (death from any cause) ([1]; adjusted to INR 2.0 to 3.0): 4.13 % per year
- Other Major bleeding, Rate ([1]; adjusted to INR 2.0 to 3.0): 1.80 /100 Person Years
- Pulmonary embolism, Rate ([1]; adjusted to INR 2.0 to 3.0): 0.09 /100 Person Years
- Rate of hemorrhagic stroke ([1]; adjusted to INR 2.0 to 3.0): 0.38 % per year
- Rate of major hemorrhage (major bleeding) ([1]; adjusted to INR 2.0 to 3.0): 3.46 % per year
- Rate of myocardial infarction ([1]; adjusted to INR 2.0 to 3.0): 0.54 % per year
- Rate of net benefit-risk outcome (major vascular events, major bleeding and death) ([1]; adjusted to INR 2.0 to 3.0): 7.99 % per year
- Rate of primary outcome stroke or systemic embolism ([1]; adjusted to INR 2.0 to 3.0): 1.70 % per year
- Reason for discontinuation: Gastrointestinal bleeding ([1]; adjusted to INR 2.0 to 3.0): (0.9) %
- Reason for discontinuation: Gastrointestinal disorders (including pain, vomiting and diarrhea) ([1]; adjusted to INR 2.0 to 3.0): (0.8) %
- Reason for discontinuation: Outcome event ([1]; adjusted to INR 2.0 to 3.0): (2.2) %
- Reason for discontinuation: Patient decision ([1]; adjusted to INR 2.0 to 3.0): (6.2) %
- Reason for discontinuation: SAE ([1]; adjusted to INR 2.0 to 3.0): (1.6) %
- Reason for discontinuation: SAE, number of patients ([1]; adjusted to INR 2.0 to 3.0): 95
- Stroke, systemic embolism, pulmonary embolism, myocardial infarction death or major bleed (net benefit), Rate ([1]; adjusted to INR 2.0 to 3.0): 7.99 /100 Person Years
- Study Drug Discontinuation At one year ([1]; adjusted to INR 2.0 to 3.0): 10%
- Study Drug Discontinuation At two years ([1]; adjusted to INR 2.0 to 3.0): (19) %
- hepatobiliary disorders (AE) ([1]; adjusted to INR 2.0 to 3.0): (2.2) %
- hepatobiliary disorders (AE), number of patients ([1]; adjusted to INR 2.0 to 3.0): 132
- hepatobiliary disorders (SAE) ([1]; adjusted to INR 2.0 to 3.0): (0.4) %
- hepatobiliary disorders (SAE), number of patients ([1]; adjusted to INR 2.0 to 3.0): 25
- Rate of discontinuation ([1]; adjusted to INR 2.0 to 3.0, at 2.5 years): 19%
- Study Drug Discontinuation At one year ([1]; adjusted to INR 2.0 to 3.0, listed as Warfarin): (10) %
- Myocardial Infarction [2]: 0.6% (warfarin)
- Stroke and systemic embolism (per 100 patient years) [2]: 1.5% (warfarin)

Reference: patent publication US8962574B2 (Boehringer Ingelheim International GmbH, priority 2008, dated 2015)
